What was measured:
murine neutrophils = assay: In vitro NET analysis of neutrophils cultured in 4T07 or 4T1 conditioned media; format: cell-based; details: Sivelestat 10 μM or DNase I 1 μg/ml; FIG. 8F
Description: To assess NET formation, neutrophils (2.5×10^5 cells) were seeded on coverslips coated with poly-L-lysine (P4707, Sigma) in 24-well plates for 30 min before adding 10% cancer cell CM, Sivelestat (10 μM), PMA (20 nM, Sigma), Cl-amidine (100 μM, Selleck) and/or DNase I (1 μg/ml). After 12 to 16 h at 37° C., neutrophils were fixed with 4% paraformaldehyde (PFA) for 10 min at room temperature, washed twice with PBS and permeabilized in 0.1% Triton X-100 for 5 min. […] NET area quantification was performed using the DANA method (Rebernick et al., “DNA area and NETosis analysis (DANA): a high-throughput method to quantify neutrophil extracellular traps in fluorescent microscope images,” Biol. Proced. Online 20:7 (2018)). Briefly, the areas of structures depicting NET morphology and positive for Ci-H3 or total H3 were counted as NETotic cell areas, and the NET area percentages were analyzed as NETotic cell areas divided by total DNA areas. The percentages of NETotic cells were analyzed as previously described ([…]). […] The percentage of NETotic cells was counted as the numbers of NETotic cells divided by the total cell numbers. […]

4T1 cells = assay: Brensocatib treatment of mice after fat pad injection of 4T1 cells (lung metastasis of breast cancer); format: in vivo, BALB/c mice; details: brensocatib 5 mg/kg orally twice daily
Description: Female BALB/c and athymic mice aged 6-10 weeks were used in all animal experiments. Orthotropic and intravenous injection were performed as previously described (Zhuang et al., “Differential effects on lung and bone metastasis of breast cancer by Wnt signalling inhibitor DKK1,” Nat. Cell Biol. 19:1274-1285 (2017)). For EdU labeling assays, nude mice were intravenously injected with 2×10^5 cancer cells, followed by intraperitoneal (i.p.) injection of 100 ng/mouse EdU (ThermoFisher, C10640) 24 h before lung harvest. For neutrophil depletion assays, mice received 2 initial i.p. injection (200 μg/mouse) of 1A8 Ly6G antibody (BE0075-1, BioXCel) or rat IgG control (14131, Sigma) every 3 days before cancer cell injection and then maintenance injection twice a week after cancer cell injection. For Sivelestat or DNase I treatment, mice were i.p. injected with Sivelestat (50 mg/kg) or DNase I (5 mg/kg) 2 h before cancer cell injection, followed by daily injection of the reagents for 9 days, and then maintenance shots twice a week. For GSK484 treatment, mice were treated with GSK484 (20 mg/kg, i.p. daily shots for 20 days from day 7, and then maintenance shots every two days) following orthotopic injection of AT3 or 4T07 cells. For IL-1b blocking or IL6R/CCR1 inhibition assays, mice were orthotopically inoculated with 5×10^4 AT3 and treated with i.p. administration of IgG or the IL-1β blocking antibody (100 μg per mouse), or the IL6R blocking antibody (100 μg per mouse) and the CCR1 inhibitor BX471 (20 mg/kg), every two days from day 7 until the mice were sacrificed. For brensocatib treatment, BALB/c mice were orthotopically inoculated with 1×10^5 4T1 cells, and C57/BL6 mice were orthotopically inoculated with 2×10^5 AT3. Vehicle controls (0.5% HPMC, 0.1% Tween 80 in 0.1 M citrate buffer, pH 3) and brensocatib (5 mg/kg) were administered orally twice daily until the mice were sacrificed. Orthotopic tumors were surgically removed at the size of about 1 cm^3. Recombinant human active PR3 treatment (1.5 mg/kg) was administrated intravenously daily after intravenous inoculation of […] LM2 cells. For TSP-1 degradation assays, mice were i.p. injected with GSK484 (20 mg/kg) 2 h before cancer cell injection and followed by daily treatment. Then, the lungs were perfused with 50 ml of pre-chilled PBS through the right ventricle until they were cleared of blood at 72 h post injection of 3×10^6 AT3 or 4T07 cells. BLI was acquired with NightOWL II LB983 Imaging System (Bert-hold) and IVIS Spectrum CT (PerkinElmer). All animal studies were conducted according to the guidelines for the care and use of laboratory animals and were approved by the Institutional Animal Care and Use Committee of Shanghai Institute of Nutrition and Health.
The use of CTSC inhibitors to treat lung metastasis of breast cancer is investigated. Brensocatib (also known as AZD7986 or INS1007) is a CTSC-specific inhibitor used for treating Non-Cystic Fibrosis Bronchiectasis, and has currently entered Phase II clinical trials. See Doyle et aL, “Discovery of second generation reversible covalent DPP1 inhibitors leading to an oxazepane amidoacetonitrile based clinical candidate (AZD7986),” J. Med. Chem. 59:9457-9472 (2016). Brensocatib is administered to mice 7 days after the introduction of 4T1 cells via fat pad injection. A vehicle control group is also provided. Graphical data for change in tumor volume over time, numbers of pulmonary nodules formed, changes in mouse weight over time, and mouse survival rates, as well as the statistical diagram of the number of NETs in the lesions, are shown in FIGS. 10A-E. CTSC inhibitor brensocatib also suppresses the NETs-promoted tumor sphere formation of 4T1 cells (FIG. 10F).

[1] = system: pancreatic cancer cells KP4; assay: Mouse xenograft, pancreatic tumor cells by spleen injection (liver metastasis); format: in vivo; details: nude mice, FIG. 12C
Description: A series of mouse xenograft studies are conducted by injecting liver and pancreatic tumor cells into nude mice by spleen injection. Then the mice are treated by brensocatib, and the growth of the tumors in liver is observed.

SMILES | NET formation induced by CTSC (percentage area covered by NETs) (murine neutrophils) | in situ tumor volume vs. time (primary tumor growth) (4T1 cells; from 7 days after 4T1 fat pad injection, vs untreated control, FIG. 10A) | formation of NETs in the lung metastatic lesions (4T1 cells; FIG. 10E) | pulmonary nodule formation (4T1 cells; vs untreated mice, FIG. 10B) | body weight decrease (4T1 cells; vs untreated mice, FIG. 10C) | survival rate (4T1 cells; vs untreated mice, FIG. 10D) | neutrophil infiltration in the pulmonary lesions (4T1 cells; vs untreated mice, FIG. 10E) | metastatic growth of pancreatic cancer cells KP4 in liver [1]
CC(C)(C)C(=O)Oc1ccc(S(=O)(=O)Nc2ccccc2C(=O)NCC(=O)O)cc1 [Silvelestat] | blocks the ability of CTSC to induce NET formation |  |  |  |  |  |  | 
Cn1c(=O)oc2ccc(-c3ccc(C[C@@H](C#N)NC(=O)[C@@H]4CNCCCO4)cc3)cc21 [brensocatib, (2S)—N-{(1S)-1-cyano-2-[4-(3-methyl-2-oxo-2,3-dihydro-1,3-benzoxazol-5-yl)phenyl]ethyl}-1,4-oxazepane-2-carboxamide] |  | does not affect primary tumor growth | significantly inhibits | significantly reduced | lower than untreated mice | significantly improves | reduced relative to untreated mice | significantly inhibits

From patent publication US12697328B2, “Methods for treating metastasis with cathepsin C inhibitors” (Shanghai Institute of Nutrition and Health, Chinese Academy …, priority 2020, dated 2026)
